# Activity calls are given as the source filed them. The calls are words filed in the database; no cut-off is given here.
# Key:
# K562 [1] = test: Cytotoxicity against human K562 cells after 48 hrs by MTT assay; type: functional, cell-based; conditions: K562, 48 h
# K562-Lucena 1 [2] = test: Cytotoxicity against human K562-Lucena 1 cells after 48 hrs by MTT assay; type: functional, cell-based; conditions: K562-Lucena 1, 48 h
# CCRF-CEM = test: Cytotoxicity against human CCRF-CEM cells after 48 hrs by MTT assay; type: functional, cell-based
# ADR5000 cell line = test: Cytotoxicity against human CEM/ADR5000 cells after 48 hrs by MTT assay; type: functional, cell-based; conditions: ADR5000, 48 h
# K562 [3] = test: Induction of apoptosis in human K562 cells assessed as viable cells at 2 mM after 24 hrs by Annexin V-FITC/PI double staining based flow cytometry analysis (Rvb =96.4%); type: functional; conditions: K562, 24 h, read-out: Activity
# K562 [4] = test: Induction of apoptosis in human K562 cells assessed as early apoptotic cells at 2 mM after 24 hrs by Annexin V-FITC/PI double staining based flow cytometry analysis (reference value: 2.76%); type: functional
# K562 [5] = test: Induction of apoptosis in human K562 cells assessed as necrotic cells at 2 mM after 24 hrs by Annexin V-FITC/PI double staining based flow cytometry analysis (reference value: 0.085%); type: functional
# K562 [6] = test: Induction of apoptosis in human K562 cells assessed as late apoptotic cells at 2 mM after 24 hrs by Annexin V-FITC/PI double staining based flow cytometry analysis (reference value: 0.79%); type: functional
# K562 [7] = test: Induction of apoptosis in human K562 cells assessed as viable cells at 2 mM after 48 hrs by Annexin V-FITC/PI double staining based flow cytometry analysis (Rvb =97.8%); type: functional; conditions: K562, 48 h, read-out: Activity
# K562 [8] = test: Induction of apoptosis in human K562 cells assessed as early apoptotic cells at 2 mM after 48 hrs by Annexin V-FITC/PI double staining based flow cytometry analysis (reference value: 1.67%); type: functional
# K562 [9] = test: Induction of apoptosis in human K562 cells assessed as late apoptotic cells at 2 mM after 48 hrs by Annexin V-FITC/PI double staining based flow cytometry analysis (reference value: 0.41%); type: functional
# K562 [10] = test: Induction of apoptosis in human K562 cells assessed as necrotic cells at 2 mM after 48 hrs by Annexin V-FITC/PI double staining based flow cytometry analysis (reference value: 0.13%); type: functional
# K562-Lucena 1 [11] = test: Induction of cell cycle arrest in human K562-Lucena 1 cells assessed as viable cells at 2 mM after 24 hrs by propidium iodide staining based flow cytometric analysis (reference value: 88%); type: functional; conditions: K562-Lucena 1, 24 h, read-out: Activity
# K562-Lucena 1 [12] = test: Induction of cell cycle arrest in human K562-Lucena 1 cells assessed as early apoptotic cells at 2 mM after 24 hrs by propidium iodide staining based flow cytometric analysis (reference value: 7.79%); type: functional
# K562-Lucena 1 [13] = test: Induction of cell cycle arrest in human K562-Lucena 1 cells assessed as late apoptotic cells at 2 mM after 24 hrs by propidium iodide staining based flow cytometric analysis (reference value: 3.15%); type: functional
# K562-Lucena 1 [14] = test: Induction of cell cycle arrest in human K562-Lucena 1 cells assessed as necrotic cells at 2 mM after 24 hrs by propidium iodide staining based flow cytometric analysis (reference value: 1.03%); type: functional
# K562-Lucena 1 [15] = test: Induction of cell cycle arrest in human K562-Lucena 1 cells assessed as viable cells at 2 mM after 48 hrs by propidium iodide staining based flow cytometric analysis (reference value: 87.1%); type: functional; conditions: K562-Lucena 1, 48 h, read-out: Activity
# K562-Lucena 1 [16] = test: Induction of cell cycle arrest in human K562-Lucena 1 cells assessed as early apoptotic cells at 2 mM after 48 hrs by propidium iodide staining based flow cytometric analysis (reference value: 7.57%); type: functional
# K562-Lucena 1 [17] = test: Induction of cell cycle arrest in human K562-Lucena 1 cells assessed as late apoptotic cells at 2 mM after 48 hrs by propidium iodide staining based flow cytometric analysis (reference value: 3.23%); type: functional
# K562-Lucena 1 [18] = test: Induction of cell cycle arrest in human K562-Lucena 1 cells assessed as necrotic cells at 2 mM after 48 hrs by propidium iodide staining based flow cytometric analysis (reference value: 2.15%); type: functional
# K562 [19] = test: Induction of DNA fragmentation in human K562 cells at 2 mM incubated for 48 hrs by DAPI staining based fluorescence microscopy; type: functional, cell-based
# K562-Lucena 1 [20] = test: Induction of DNA fragmentation in human K562-Lucena 1 cells at 2 mM incubated for 48 hrs by DAPI staining based fluorescence microscopy; type: functional, cell-based
# K562 [21] = test: Induction of morphological changes in human K562 cells assessed as appearance of condensed chromatin at 2 mM incubated for 48 hrs by DAPI staining based fluorescence microscopy; type: functional, cell-based
# K562-Lucena 1 [22] = test: Induction of morphological changes in human K562-Lucena 1 cells assessed as appearance of condensed chromatin at 2 mM incubated for 48 hrs by DAPI staining based fluorescence microscopy; type: functional, cell-based
# K562 [23] = test: Induction of morphological changes in human K562 cells assessed as appearance of apoptotic bodies at 2 mM incubated for 48 hrs by DAPI staining based fluorescence microscopy; type: functional, cell-based
# K562-Lucena 1 [24] = test: Induction of morphological changes in human K562-Lucena 1 cells assessed as appearance of apoptotic bodies at 2 mM incubated for 48 hrs by DAPI staining based fluorescence microscopy; type: functional, cell-based
# K562 [25] = test: Induction of cell cycle arrest in human K562 cells assessed as decrease in accumulation of cells at G1 phase at 1.4 uM after 24 hrs by propidium iodide staining based flow cytometric analysis; type: functional
# K562 [26] = test: Induction of cell cycle arrest in human K562 cells assessed as decrease in accumulation of cells at S phase at 1.4 uM after 24 hrs by propidium iodide staining based flow cytometric analysis; type: functional
# K562-Lucena 1 [27] = test: Induction of cell cycle arrest in human K562-Lucena 1 cells assessed as decrease in accumulation of cells at G1 phase at 40 uM after 24 hrs by propidium iodide staining based flow cytometric analysis; type: functional
compound,measurement,setting,value
C=C(CO)C(=O)O[C@H]1C/C(COC(C)=O)=C/CC/C(C)=C/[C@H]2OC(=O)C(=C)[C@H]12,IC50,K562 [1],> 10 µM
same,IC50,K562-Lucena 1 [2],> 10 µM
same,IC50,CCRF-CEM,3.5 µM
same,IC50,ADR5000 cell line,7.7 µM
NC(=O)NO [HYDROXYUREA],viability at 2000 µM,K562 [3],96%
same,Activity,K562 [4],2.82%
same,Activity,K562 [5],0.75%
same,Activity,K562 [6],0.45%
same,viability at 2000 µM,K562 [7],70.5%
same,Activity,K562 [8],21.9%
same,Activity,K562 [9],6.06%
same,Activity,K562 [10],1.5%
same,viability at 2000 µM,K562-Lucena 1 [11],77.7%
same,Activity,K562-Lucena 1 [12],15.3%
same,Activity,K562-Lucena 1 [13],5.06%
same,Activity,K562-Lucena 1 [14],1.99%
same,viability at 2000 µM,K562-Lucena 1 [15],60.1%
same,Activity,K562-Lucena 1 [16],22.1%
same,Activity,K562-Lucena 1 [17],12.2%
same,Activity,K562-Lucena 1 [18],5.57%
same,Activity,K562 [19],Active
same,Activity,K562-Lucena 1 [20],Active
same,Activity,K562 [21],Active
same,Activity,K562-Lucena 1 [22],Active
same,Activity,K562 [23],Active
same,Activity,K562-Lucena 1 [24],Active
COc1cccc2c1C(=O)c1c(O)c3c(c(O)c1C2=O)C[C@@](O)(C(=O)CO)C[C@@H]3O[C@H]1C[C@H](N)[C@H](O)[C@H](C)O1 [DOXORUBICIN],IC50,K562 [1],1.4 µM
same,IC50,K562-Lucena 1 [2],> 10 µM
same,IC50,CCRF-CEM,0.17 µM
same,IC50,ADR5000 cell line,> 10 µM
same,Activity,K562 [25],inactive
same,Activity,K562 [26],inactive
same,Activity,K562-Lucena 1 [27],Active

# — ChEMBL document CHEMBL4622878, “Cytotoxic Activity of Germacrane-Type Sesquiterpene Lactones from Dimerostemma aspilioides” (J Nat Prod, 2020)
